Source: paper PMC3676400, “3-Oxoacyl-ACP Reductase from Schistosoma japonicum: Integrated In Silico-In Vitro Strategy for Discovering Antischistosomal Lead Compounds” (PLoS ONE, 2013)
Like-named read-outs stand apart in the source and are kept apart here.

Assays:
[1] = system: P. falciparum OAR; details: cited from earlier work
[2] = system: Escherichia coli OAR; details: E. coli, ref [32], cited from earlier work
[3] = system: M. tuberculosis OAR; details: cited from earlier work
[4] = target: T1, rSjOAR (Schistosoma japonicum, UniProt Q5DB51); assay: BIAcore assay of binding to immobilized rSjOAR
Procedure: The binding capacities of small compounds identified by the virtual screen with rSjOAR were assessed using a BIAcore 3000 instrument (BIAcore AB, Uppsala, Sweden). The recombinant His-tag fusion protein SjOAR was immobilized onto an NTA chip. Compounds were injected at a concentration of 10 µM and a flow rate of 40 µl/min in HBS buffer (0.01 M HEPES, 0.15 M NaCl, 3.0 mM EDTA, 0.005% Tween 20, pH 7.4) containing 1‰ DMSO (Dimethyl sulfoxide). Electrical alterations on the sensor chip were monitored as a resonance signal by using the program supplied by the manufacturer. To further obtain kinetic parameters, a series of compound concentrations (0.5 µM, 1 µM, 2 µM, 5 µM and 10 µM) were measured. Data were analyzed by using the software with which the instrument was equipped.

[5] = system: adult worms; assay: Inhibition studies on cultured adult worms
[6] = target: T1, rSjOAR; assay: Effect of active compounds on rSjOAR enzymatic activity; assay type: biochemical
Procedure: The Median inhibitory concentration (IC50) was calculated by curve fitting using SPSS18.0 statistical software with a confidence interval of 95%. All assays were carried out in triplicate and repeated three times.

[7] = system: adult worms; parameters: method as in PMID 19851783; details: after the drug is removed; ref [30]; cited from earlier work
[8] = substrate: CC(=O)CC(=O)SCCNC(=O)CCNC(=O)[C@H](O)C(C)(C)COP(=O)(O)OP(=O)(O)OC[C@H]1O[C@@H](n2cnc3c(N)ncnc32)[C@H](O)[C@@H]1OP(=O)(O)O; assay: rSjOAR kinetic analysis (Michaelis constants of substrates); assay type: biochemical; details: other: S. japonicum; pH 6.8; 37.0 °C
Procedure: The linear rates obtained over the first 0–2 min were analyzed by the non-linear regression function in OriginPro software. To investigate the enzyme mechanism, a matrix of kinetic data was taken where one substrate was varied at four fixed concentrations of the other substrate. Individual data sets were analyzed using the Michaelis-Menten equation (eq 1) in order to establish whether the double-reciprocal plots were parallel or convergent. The data for intersecting initial velocity patterns were fitted to eq2, describing a steady-state sequential mechanism.

Q: What does the source list for `CC(=O)CC(=O)SCCNC(=O)CCNC(=O)[C@H](O)C(C)(C)COP(=O)(O)OP(=O)(O)OC[C@H]1O[C@@H](n2cnc3c(N)ncnc32)[C@H](O)[C@@H]1OP(=O)(O)O` [AcAcCoA, Acetoacetyl-CoA]?
A: Km ([1]; read-out: Km(app)AcAcCoA, ref [12], [22]): 510 ± 50 µM; Km ([2]; read-out: Km(app)AcAcCoA): 2500 µM; Km ([3]; read-out: Km(app)AcAcCoA, M. tuberculosis, ref [17], [20]): 170 ± 20 µM

Q: For `O=C(NC1CCN(CCc2c[nH]c3ccccc23)CC1)c1ccccc1` [OAR8], which “Rmax (maximum binding capacity)” value ([4]; BIAcore) is on record?
A: 57.4

Q: What about the “KA (association constant)” value ([4]; BIAcore, five concentrations 0.5-10 µM) of the same molecule?
A: 82900 M⁻¹

Q: What about the Kd ([4]; BIAcore, five concentrations 0.5-10 µM, read-out: KD (dissociation constant)) of the same molecule?
A: 12.1 µM

Q: What about the mortality ([5]; primary screening, 50 µg/ml, after 48 h) of the same molecule?
A: 100%

Q: What does the source list for `O=C(C1CCCCC1)N1CC(=O)N2CCc3ccccc3C2C1` (stereo not shown) [PZQ, praziquantel]?
A: BIAcore response signal ([4]; compound 10 µM): only a small signal; effect on rSjOAR enzymatic activity [6]: no significant inhibition; morphological changes, optical microscopy ([5]; PZQ 10 µg/ml, 24 h (Figure 5E)): drastic contractions; mortality at 1.6 µg/mL ([5]; Schistosoma japonicum, 72 h): 83.3%; reversibility of effect against schistosomes [7]: reversible

Q: Which Km ([1]; read-out: Km(app)NADPH, ref [12], [22]) does the source give for NADPH here?
A: 47.5 ± 4.5 µM

Q: What about the Km ([2]; read-out: Km(app)NADPH) of the same molecule?
A: 21 µM

Q: And the Km ([3]; read-out: Km(app)NADPH)?
A: 26 ± 3 µM

B1: rSjOAR (Schistosoma japonicum) (protein)
chain: MISLSKKVAIVTGASSGIGRATAILFAKLGACVALVARDKSRLQETRQACIQVSHPDVYEKHKEPFLCIEADLGDSHEVEKAYRLALNHFHQLDILVNNAGFMIQDTVETFNIDEYERLMKLNLTAAITLTNLAVPDLTTTKGSIVNVSSVCGERSFPGVMSYCISKAALDQFTKCTALDLASKGIRVNSVNPAVIVTELHKRAGMSEDDYKKFLLKSKESHALGRTGTVEEVAQAIAFLSSSASSFTTGNLLMVDGGRSIMCPR
Q: With B1 as the molecule, how does the Km [8] read?
A: 550 ± 30 µM
